IC50 and EC50 data for 21 molecules are collected here from patent US8431563B2 (priority 2010, dated 2013).

For test [1], the target named is T1, interaction between glucokinase (GK) and glucokinase regulatory protein (GKRP) (Homo sapiens, UniProt Q14397).
T1 sequence (Q14397 1-625): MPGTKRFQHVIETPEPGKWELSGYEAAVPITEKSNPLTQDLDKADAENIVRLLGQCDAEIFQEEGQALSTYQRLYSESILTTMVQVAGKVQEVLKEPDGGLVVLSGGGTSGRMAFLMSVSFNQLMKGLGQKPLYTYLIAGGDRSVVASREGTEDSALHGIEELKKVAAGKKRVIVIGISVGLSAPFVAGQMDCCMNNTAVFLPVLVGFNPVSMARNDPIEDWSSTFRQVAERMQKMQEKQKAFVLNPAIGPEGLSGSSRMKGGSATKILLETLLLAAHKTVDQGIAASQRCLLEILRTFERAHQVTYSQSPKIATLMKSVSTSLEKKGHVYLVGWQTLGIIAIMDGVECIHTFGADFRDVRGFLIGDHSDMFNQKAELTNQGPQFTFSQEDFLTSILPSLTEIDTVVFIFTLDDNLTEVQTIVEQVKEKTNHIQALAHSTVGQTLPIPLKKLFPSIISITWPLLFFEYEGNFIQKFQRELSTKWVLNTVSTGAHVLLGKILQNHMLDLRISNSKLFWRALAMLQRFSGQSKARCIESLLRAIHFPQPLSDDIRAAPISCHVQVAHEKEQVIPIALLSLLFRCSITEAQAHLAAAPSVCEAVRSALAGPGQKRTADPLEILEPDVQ
The test can be described thus: biochemical. It is filed as binding. Particulars: avi-tagged GKRP, GK-fluorescein, AlphaScreen beads. In a few lines: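 Avi-tagged human GKRP preincubated with compound for 20 min at room temperature, then 6 nM GK-fluorescein (concentration of added solution) introduced and incubated 2 h in the dark. Buffer: 20 mM Tris pH 7.5, 0.05% BSA, 1 mM DTT, 1 μM sorbitol-6-phosphate. Plate read on a fluorescence reader.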
For orientation: Bead proximity is the source of the signal in Alpha formats.

For test [2], the target named is T2, GKRP (Glucokinase Regulatory Protein) with human His-hepatic GK (Homo sapiens, UniProt Q14397).
T2 sequence (Q14397 1-625): T1 sequence (Q14397 1-625)
The experiment in a line: biochemical. Particulars: 13C-glucose-6-phosphate formation, 280 nM GKRP (10×), 30 nM GK (5×). Put shortly:
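Human His-tagged hepatic GK (30 nM in the 5× working stock) in 50 mM Tris pH 7.5, 4 mM MgCl2, 6% DMSO with DTT, BSA and Brij-35. Enzyme was added after a 30 min step and reacted 30 min at room temperature. The reaction was stopped with acetonitrile and 13C-glucose-6-phosphate formed from 13C-glucose was quantified by LC MS/MS.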

Where [3] appears, read: read-out: GK-GKRP IC50 (Binding).
The mark [4] stands for this setting: read-out: GK-GKRP EC50 (LC MS/MS-2).

Like-named read-outs stand apart in the source and are kept apart here.

One may read the IC50 as the midpoint of a concentration-inhibition curve. As to `CC(O)(c1ccc(N2CCN(S(=O)(=O)c3cccs3)C[C@@H]2CS(=O)(=O)c2ccccc2)cc1)C(F)(F)F` (single isomer, unassigned) [Example 187 Peak#1], the half-inhibitory concentration (IC50) in test [1] (setting [3]) amounted to 41 nM. Moreover, in test [2] (setting [4]), the EC50 stood at 49 nM.

For `CC(O)(c1ccc(N2CCN(S(=O)(=O)c3cccs3)C[C@@H]2CS(=O)(=O)c2ccccc2)cc1)C(F)(F)F` (single isomer, unassigned) [Example 187 Peak#2], in test [1] (setting [3]), the IC50 is 59 nM. In addition, the EC50 in test [2] (setting [4]) worked out at 52 nM.

With `CC(O)(c1ccc(N2CCN(S(=O)(=O)c3cccs3)C[C@@H]2C[S+]([O-])c2ccc(F)cc2)cc1)C(F)(F)F` (single isomer, unassigned) [Example 191 Peak#2], the half-inhibitory concentration (IC50) in test [1] (setting [3]) worked out at 425 nM. For the same molecule, the EC50 in test [2] (setting [4]) stood at 252 nM.

For the molecule `CC(O)(c1ccc(N2CCN(S(=O)(=O)c3cccs3)C[C@@H]2C[S+]([O-])c2ccc(F)cc2)cc1)C(F)(F)F` (single isomer, unassigned) [Example 191 Peak#3], the IC50 in test [1] (setting [3]) was 259 nM. The EC50 in test [2] (setting [4]) was found to be 262 nM.

As to `CC(O)(c1ccc(N2CCN(S(=O)(=O)c3cccs3)C[C@@H]2CN2C3COCC2C(O)C3)cc1)C(F)(F)F` (single isomer, unassigned; peak #1) [Example 77 Peak #1], the IC50 in test [1] (setting [3]) turned out to be 13 nM. Also, in test [2] (setting [4]), the EC50 worked out at 38 nM.

As for `CC(O)(c1ccc(N2CCN(S(=O)(=O)c3cccs3)C[C@@H]2CN2C3COCC2C(O)C3)cc1)C(F)(F)F` (single isomer, unassigned; peak #4) [Example 77 Peak #4], the IC50 in test [1] (setting [3]) worked out at 42 nM. Also, in test [2] (setting [4]), the EC50 was determined as 65 nM.

For `CC(O)(c1ccc(N2CCN(S(=O)(=O)c3cccs3)C[C@@H]2CN2C3COCC2C(O)C3)cc1)C(F)(F)F` (stereo partly drawn) [Example 77, 8-(((2S)-4-(2-thiophenylsulfonyl)-1-(4-(2,2,2-trifluoro-1-hydroxy-1-methylethyl)phenyl)-2-piperazinyl)methyl)-3-oxa-8-azabicyclo[3.2.1]octan-6-ol (endo)], in test [1] (setting [3]), the IC50 came to 28 nM. Besides, in test [2] (setting [4]), the EC50 was 31 nM.

For the molecule `CC(O)(c1ccc(N2CCN(S(=O)(=O)c3cccs3)C[C@@H]2CN2C3COCC2C(O)C3)cc1)C(F)(F)F` (stereo partly drawn) [Example 78, 8-(((2S)-4-(2-thiophenylsulfonyl)-1-(4-(2,2,2-trifluoro-1-hydroxy-1-methylethyl)phenyl)-2-piperazinyl)methyl)-3-oxa-8-azabicyclo[3.2.1]octan-6-ol], the 50% inhibitory concentration (IC50) in test [1] (setting [3]) is 42 nM. Moreover, the EC50 in test [2] (setting [4]) amounted to 50 nM.

For `O=S(=O)(c1cccs1)N1CCN(c2ncc(C(O)(C(F)(F)F)C(F)(F)F)cn2)[C@@H](CN2C3COCC2C(O)C3)C1` (stereo partly drawn) [Example 79, 8-(((2S)-4-(2-thiophenylsulfonyl)-1-(5-(2,2,2-trifluoro-1-hydroxy-1-(trifluoromethyl)ethyl)-2-pyrimidinyl)-2-piperazinyl)methyl)-3-oxa-8-azabicyclo[3.2.1]octan-6-ol], the IC50 in test [1] (setting [3]) came to 39 nM. In addition, in test [2] (setting [4]), the EC50 came out at 58 nM.

As to `O=S(=O)(c1nccs1)N1CCN(c2ncc(C(O)(C(F)(F)F)C(F)(F)F)cn2)[C@@H](CN2C3COCC2C(O)C3)C1` (stereo partly drawn) [Example 81, 8-(((2S)-4-(1,3-thiazol-2-ylsulfonyl)-1-(5-(2,2,2-trifluoro-1-hydroxy-1-(trifluoromethyl)ethyl)-2-pyrimidinyl)-2-piperazinyl)methyl)-3-oxa-8-azabicyclo[3.2.1]octan-6-ol], in test [1] (setting [3]), the IC50 was found to be 177 nM. Moreover, the EC50 in test [2] (setting [4]) is 287 nM.

For the molecule `C[C@H]1COCCN1C[C@H]1CN(S(=O)(=O)c2cccs2)CCN1c1ncc(C(O)(C(F)(F)F)C(F)(F)F)cn1` [Example 82, 1,1,1,3,3,3-hexafluoro-2-(2-((2S)-2-(((3S)-3-methyl-4-morpholinyl)methyl)-4-(2-thiophenylsulfonyl)-1-piperazinyl)-5-pyrimidinyl)-2-propanol], the IC50 in test [1] (setting [3]) was 15 nM. Moreover, the EC50 in test [2] (setting [4]) came to 26 nM.

`Nc1ccc(S(=O)(=O)N2CCN(c3ccc(C(O)(C(F)(F)F)C(F)(F)F)cc3)CC2)s1` [Example 88, 2-(4-(4-((5-amino-2-thiophenyl)sulfonyl)-1-piperazinyl)phenyl)-1,1,1,3,3,3-hexafluoro-2-propanol]: the IC50 in test [1] (setting [3]) turned out to be 302 nM. Further, in test [2] (setting [4]), the EC50 was found to be 150 nM.

Take `C[C@H]1CN(S(=O)(=O)c2ccc(N)s2)CCN1c1ncc(C(O)(C(F)(F)F)C(F)(F)F)cn1` [Example 89, 2-(2-((2S)-4-((5-amino-2-thiophenyl)sulfonyl)-2-methyl-1-piperazinyl)-5-pyrimidinyl)-1,1,1,3,3,3-hexafluoro-2-propanol]: in test [1] (setting [3]), the IC50 was 252 nM. In test [2] (setting [4]), the EC50 amounted to 161 nM.

`C[C@H]1CN(S(=O)(=O)c2ccc(N)nc2)CCN1c1ccc(C(O)(C(F)(F)F)C(F)(F)F)cc1` [Example 92, 2-(4-((2S)-4-((6-amino-3-pyridinyl)sulfonyl)-2-methyl-1-piperazinyl)phenyl)-1,1,1,3,3,3-hexafluoro-2-propanol]: the IC50 in test [1] (setting [3]) is 205 nM. Also, in test [2] (setting [4]), the EC50 was determined as 233 nM.

`C[C@H]1CN(S(=O)(=O)c2ccc(N)nc2)CCN1c1ncc(C(O)(C(F)(F)F)C(F)(F)F)cn1` [Example 93, 2-(2-((2S)-4-((6-amino-3-pyridinyl)sulfonyl)-2-methyl-1-piperazinyl)-5-pyrimidinyl)-1,1,1,3,3,3-hexafluoro-2-propanol]: the IC50 in test [1] (setting [3]) is 190 nM. The EC50 in test [2] (setting [4]) turned out to be 196 nM.

Consider `C[C@H]1CN(S(=O)(=O)c2cccs2)CCN1c1ncc(C(O)(C(F)(F)F)C(F)(F)F)cn1` [Example 94, 1,1,1,3,3,3-hexafluoro-2-(2-((2S)-2-methyl-4-(2-thiophenylsulfonyl)-1-piperazinyl)-5-pyrimidinyl)-2-propanol], for which the IC50 in test [1] (setting [3]) was 362 nM. In addition, the EC50 in test [2] (setting [4]) worked out at 470 nM.

As for `Nc1ccc(S(=O)(=O)N2CCN(c3ncc(C(O)(C(F)(F)F)C(F)(F)F)cn3)[C@@H](CN3C4COCC3CC(O)C4)C2)s1` (stereo partly drawn) [Example 98 nonan-7-ol (endo), 9-(((2S)-4-((5-amino-2-thiophenyl)sulfonyl)-1-(5-(2,2,2-trifluoro-1-hydroxy-1-(trifluoromethyl)ethyl)-2-pyrimidinyl)-2-piperazinyl)methyl)-3-oxa-9-azabicyclo[3.3.1]nonan-7-ol (endo)], in test [1] (setting [3]), the concentration for half-maximal inhibition (IC50) came to 2 nM. In addition, in test [2] (setting [4]), the EC50 came to 19 nM.

Molecule `Nc1ccc(S(=O)(=O)N2CCN(c3ncc(C(O)(C(F)(F)F)C(F)(F)F)cn3)[C@@H](CN3C4COCC3CC(=O)C4)C2)s1` [Example 98 nonan-7-one, 9-(((2S)-4-((5-amino-2-thiophenyl)sulfonyl)-1-(5-(2,2,2-trifluoro-1-hydroxy-1-(trifluoromethyl)ethyl)-2-pyrimidinyl)-2-piperazinyl)methyl)-3-oxa-9-azabicyclo[3.3.1]nonan-7-one] had an IC50 in test [1] (GK-GKRP IC50 (Binding)) of 16 nM. The molecule further displayed an EC50 in test [2] (GK-GKRP EC50 (LC MS/MS-2)) of 40 nM.

On to `Nc1ccc(S(=O)(=O)N2CCN(c3ncc(C(O)(C(F)(F)F)C(F)(F)F)cn3)[C@@H](CN3C4COCC3CC(O)C4)C2)cn1` (stereo partly drawn) [Example 99 nonan-7-ol (endo), 9-(((2S)-4-((6-amino-3-pyridinyl)sulfonyl)-1-(5-(2,2,2-trifluoro-1-hydroxy-1-(trifluoromethyl)ethyl)-2-pyrimidinyl)-2-piperazinyl)methyl)-3-oxa-9-azabicyclo[3.3.1]nonan-7-ol (endo)], for which the half-maximal inhibitory concentration (IC50) in test [1] (setting [3]) was 3 nM. For the same molecule, the EC50 in test [2] (setting [4]) was found to be 25 nM.

Consider `Nc1ccc(S(=O)(=O)N2CCN(c3ncc(C(O)(C(F)(F)F)C(F)(F)F)cn3)[C@@H](CN3C4COCC3CC(=O)C4)C2)cn1` [Example 99 nonan-7-one, 9-(((2S)-4-((6-amino-3-pyridinyl)sulfonyl)-1-(5-(2,2,2-trifluoro-1-hydroxy-1-(trifluoromethyl)ethyl)-2-pyrimidinyl)-2-piperazinyl)methyl)-3-oxa-9-azabicyclo[3.3.1]nonan-7-one], for which the IC50 in test [1] (setting [3]) amounted to 75 nM. Also, the EC50 in test [2] (setting [4]) was 97 nM.

For the molecule `CC(O)(c1ccc(N2CCN(S(=O)(=O)c3cccs3)C[C@@H]2CN2[C@@H]3COC[C@H]2CC(=O)C3)cc1)C(F)(F)F` (stereo partly drawn) [Example 106, 9-(((2S)-4-(2-thiophenylsulfonyl)-1-(4-(2,2,2-trifluoro-1-hydroxy-1-methylethyl)phenyl)-2-piperazinyl)methyl)-3-oxa-9-azabicyclo[3.3.1]nonan-7-one], the IC50 in test [1] (setting [3]) is 35 nM. Further, the EC50 in test [2] (setting [4]) is 97 nM.
